Experimental data published in US8546389B2 (priority 2010, dated 2013).
pEC50, pIC50: −log10 of the molar value. Read-outs that look alike come from different tables or passages of the source.

How the values were obtained:
[1] = system: subgenomic genotype 1a replicon cell line; assay: HCV replicon assay, genotype 1a; format: cell-based, HCV genotype 1a
Method: (§1) A genotype 1b (Con 1) subgenomic replicon cell line based on Blight et al., Science 2000 290: 1972-1974, modified to express a Renilla luciferase reporter gene was used to assess antiviral activity of test compounds. Cell cultures were maintained in a sub-confluent state in DMEM with glutamine, 10% heat-inactivated foetal bovine serum (FBS) and G418 (Geneticin®).
(§2) For assay, cells were seeded at a density of 7000 cells/well into 96 well tissue culture trays in culture media lacking G418. Compounds were tested in a three fold dilution series, for example starting from 50 uM. After 72 hours incubation at 37° C. and 5% CO2, Renilla luciferase activity was quantified via the Promega Renilla Luciferase or Renilla-Glo™ Luciferase Assay Systems (Promega corporation. The same method was employed for replicon assays using subgenomic genotype 1a and 2a replicon cell lines with a seeding cell density of 5000 cells/well for the 2a cell lines.
(§3) The compound concentration that reduced luciferase activity by 50% (EC50) was calculated using non-linear regression.

[2] = system: genotype 1b (Con 1) subgenomic replicon cell line; assay: HCV replicon assay, genotype 1b (Renilla luciferase); format: cell-based, HCV genotype 1b (Con 1); settings: genotype 1b replicon
How it was run: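 Subgenomic replicon cells expressing Renilla luciferase (1b Con1; 1a and 2a lines by the same method) seeded at 7000 cells/well (5000 for 2a) without G418, exposed to 3-fold compound dilutions for 72 h at 37 °C. Luciferase activity measured; EC50 by non-linear regression.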

[3] = molecular target: genotype 3a (VRL-69) NS5bΔ21 polymerase (Hepatitis C virus genotype 3a, UniProt Q81258); assay: HCV polymerase inhibition assay, genotype 3a; format: biochemical, HCV genotype 3a (VRL-69)
Sequence of genotype 3a (VRL-69) NS5bΔ21 polymerase (Q81258 whole entry, looked up, stated change not applied): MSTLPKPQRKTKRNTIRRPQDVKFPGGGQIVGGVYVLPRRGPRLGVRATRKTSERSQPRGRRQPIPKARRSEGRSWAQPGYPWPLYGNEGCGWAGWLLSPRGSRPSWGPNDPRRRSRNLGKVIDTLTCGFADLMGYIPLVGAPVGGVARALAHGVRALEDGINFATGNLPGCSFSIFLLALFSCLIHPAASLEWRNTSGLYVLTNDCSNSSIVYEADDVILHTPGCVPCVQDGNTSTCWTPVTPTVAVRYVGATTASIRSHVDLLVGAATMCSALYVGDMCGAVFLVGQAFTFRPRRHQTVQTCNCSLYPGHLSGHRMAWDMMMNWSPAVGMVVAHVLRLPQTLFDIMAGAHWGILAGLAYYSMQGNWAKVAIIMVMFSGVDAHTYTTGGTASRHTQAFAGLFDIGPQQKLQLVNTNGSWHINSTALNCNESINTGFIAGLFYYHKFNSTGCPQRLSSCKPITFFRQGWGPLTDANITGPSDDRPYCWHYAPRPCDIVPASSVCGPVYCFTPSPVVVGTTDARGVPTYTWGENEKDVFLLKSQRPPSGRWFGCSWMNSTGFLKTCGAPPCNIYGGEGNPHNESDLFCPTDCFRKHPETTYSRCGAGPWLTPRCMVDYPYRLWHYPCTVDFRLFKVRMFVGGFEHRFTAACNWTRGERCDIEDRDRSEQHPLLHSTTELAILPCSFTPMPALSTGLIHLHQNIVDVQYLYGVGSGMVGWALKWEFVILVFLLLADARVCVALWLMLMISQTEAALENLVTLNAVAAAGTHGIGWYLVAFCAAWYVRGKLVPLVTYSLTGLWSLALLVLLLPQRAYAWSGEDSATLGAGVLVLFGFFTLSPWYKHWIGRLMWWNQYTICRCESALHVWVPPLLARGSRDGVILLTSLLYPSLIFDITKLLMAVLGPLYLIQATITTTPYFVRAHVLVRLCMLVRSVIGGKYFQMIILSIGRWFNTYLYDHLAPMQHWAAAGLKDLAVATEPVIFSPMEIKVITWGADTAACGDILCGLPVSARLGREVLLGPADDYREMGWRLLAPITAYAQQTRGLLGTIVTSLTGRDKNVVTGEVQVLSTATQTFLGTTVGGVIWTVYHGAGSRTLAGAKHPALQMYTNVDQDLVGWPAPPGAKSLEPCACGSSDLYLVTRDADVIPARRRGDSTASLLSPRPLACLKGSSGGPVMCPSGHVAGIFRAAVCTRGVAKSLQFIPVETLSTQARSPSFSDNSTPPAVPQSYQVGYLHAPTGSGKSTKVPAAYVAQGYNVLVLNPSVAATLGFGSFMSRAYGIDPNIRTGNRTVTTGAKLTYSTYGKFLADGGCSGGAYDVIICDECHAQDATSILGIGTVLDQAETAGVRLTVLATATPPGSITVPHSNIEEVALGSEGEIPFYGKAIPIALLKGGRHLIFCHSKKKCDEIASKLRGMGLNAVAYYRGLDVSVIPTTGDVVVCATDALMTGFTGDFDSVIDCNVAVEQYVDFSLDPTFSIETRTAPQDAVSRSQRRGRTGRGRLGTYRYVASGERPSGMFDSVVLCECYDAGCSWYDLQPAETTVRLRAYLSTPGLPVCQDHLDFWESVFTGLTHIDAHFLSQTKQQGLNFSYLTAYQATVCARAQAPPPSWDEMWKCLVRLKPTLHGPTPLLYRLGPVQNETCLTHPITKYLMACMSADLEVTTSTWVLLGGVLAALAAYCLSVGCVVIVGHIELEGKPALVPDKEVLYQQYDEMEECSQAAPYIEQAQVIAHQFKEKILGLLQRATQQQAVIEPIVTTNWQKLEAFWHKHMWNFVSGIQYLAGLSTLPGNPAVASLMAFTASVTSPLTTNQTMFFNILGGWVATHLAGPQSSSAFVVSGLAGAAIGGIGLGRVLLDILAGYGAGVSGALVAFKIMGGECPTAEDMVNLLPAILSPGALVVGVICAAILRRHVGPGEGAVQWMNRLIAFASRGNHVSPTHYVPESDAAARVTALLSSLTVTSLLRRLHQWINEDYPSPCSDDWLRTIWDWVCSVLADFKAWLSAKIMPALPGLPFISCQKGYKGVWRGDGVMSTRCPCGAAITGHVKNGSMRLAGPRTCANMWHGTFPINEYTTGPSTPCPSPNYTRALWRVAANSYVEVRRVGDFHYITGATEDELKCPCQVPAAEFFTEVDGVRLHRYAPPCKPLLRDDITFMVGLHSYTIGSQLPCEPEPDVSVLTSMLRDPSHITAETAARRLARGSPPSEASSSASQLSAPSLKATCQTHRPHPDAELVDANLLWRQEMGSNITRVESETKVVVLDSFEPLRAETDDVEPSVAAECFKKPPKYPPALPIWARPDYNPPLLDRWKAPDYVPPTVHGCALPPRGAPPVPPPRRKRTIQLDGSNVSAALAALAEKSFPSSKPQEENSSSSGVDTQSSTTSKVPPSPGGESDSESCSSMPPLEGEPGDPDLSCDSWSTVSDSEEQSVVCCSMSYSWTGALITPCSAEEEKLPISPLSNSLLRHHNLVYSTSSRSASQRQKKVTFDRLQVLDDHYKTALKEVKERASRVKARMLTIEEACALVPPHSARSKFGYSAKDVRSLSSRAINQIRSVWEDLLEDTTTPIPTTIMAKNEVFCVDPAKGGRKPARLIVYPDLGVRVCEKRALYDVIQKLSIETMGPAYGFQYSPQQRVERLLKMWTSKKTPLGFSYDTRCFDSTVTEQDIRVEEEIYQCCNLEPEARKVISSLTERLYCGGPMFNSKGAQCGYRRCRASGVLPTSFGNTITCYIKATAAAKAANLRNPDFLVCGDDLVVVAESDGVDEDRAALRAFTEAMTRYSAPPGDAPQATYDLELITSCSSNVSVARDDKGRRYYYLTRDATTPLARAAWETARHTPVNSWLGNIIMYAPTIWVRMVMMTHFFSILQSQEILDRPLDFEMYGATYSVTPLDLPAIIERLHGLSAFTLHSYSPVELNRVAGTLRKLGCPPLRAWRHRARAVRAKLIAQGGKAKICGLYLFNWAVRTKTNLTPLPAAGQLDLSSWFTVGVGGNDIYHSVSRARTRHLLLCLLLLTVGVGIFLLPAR
Method: HCV polymerase reactions were carried out using a modified method of Howe et al., Antimicrobial Agents and Chemotherapy 2004 48(12): 4813-4821. Reactions contained a final concentration of, 0.5% DMSO, 50 nM, 1b (BK) NS5bΔ21, 20 mM Tris-HCl pH 7.5, 5 mM MgCl2, 5 mM MnCl2, 3 mM DTT, 0.05% BSA, 0.2 U/μL RNasin, 10 μg/mL Poly(rC) template, GTP (at Km) and 0.05 μCi/μL ^33P-GTP in a total reaction volume of 50 μL. Compounds were tested in a three fold dilution series, for example starting from 50 μM. Reactions were initiated with the addition of GTP and terminated after 1 hour with 50 μL ice cold 0.2 M EDTA. Terminated reactions were transferred to DEAE 96-well filter plates, unincorporated nucleotides washed from the filters and 50 μL scintillation fluid added prior to reading on a scintillation counter. Similarly, a genotype 3a (VRL-69) NS5bΔ21 polymerase enzyme assay was conducted using essentially the same method.
The compound concentration that reduced ^33P-GTP incorporation by 50% (IC50) was calculated using non-linear regression.

1b (BK) NS5bΔ21 = 1b (BK) NS5bΔ21 (Hepatitis C virus genotype 1b (isolate BK) (HCV), UniProt P26663); assay: HCV polymerase inhibition assay, genotype 1b; format: biochemical, HCV genotype 1b (BK)
Sequence of 1b (BK) NS5bΔ21 (P26663 2420-2989): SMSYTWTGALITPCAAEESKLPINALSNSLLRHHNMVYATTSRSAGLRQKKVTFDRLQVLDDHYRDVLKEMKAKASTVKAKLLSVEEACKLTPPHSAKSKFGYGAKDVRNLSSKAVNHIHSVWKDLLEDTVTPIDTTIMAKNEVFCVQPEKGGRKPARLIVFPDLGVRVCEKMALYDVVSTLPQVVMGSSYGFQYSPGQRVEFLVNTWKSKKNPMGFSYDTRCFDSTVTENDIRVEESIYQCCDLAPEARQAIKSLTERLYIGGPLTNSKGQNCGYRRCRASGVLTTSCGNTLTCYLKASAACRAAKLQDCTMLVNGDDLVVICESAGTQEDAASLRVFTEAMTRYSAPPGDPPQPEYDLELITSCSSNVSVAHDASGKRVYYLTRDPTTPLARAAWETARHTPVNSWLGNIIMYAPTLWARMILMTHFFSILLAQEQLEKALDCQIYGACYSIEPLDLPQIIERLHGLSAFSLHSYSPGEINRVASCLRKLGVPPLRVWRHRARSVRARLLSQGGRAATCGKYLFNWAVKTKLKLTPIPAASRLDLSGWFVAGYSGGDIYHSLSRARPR
How it was run: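 NS5bΔ21 (50 nM) in Tris-HCl pH 7.5 with Mg2+/Mn2+, DTT, BSA, 0.5% DMSO, poly(rC) template, GTP at Km and ^33P-GTP; 3-fold compound dilutions. GTP-started reactions stopped with EDTA after 1 h; incorporation read by DEAE filter scintillation counting. IC50 by non-linear regression; 3a enzyme run the same way.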

[4] = system: subgenomic genotype 2a replicon cell line; assay: HCV replicon assay, genotype 2a; format: cell-based, HCV genotype 2a
Method: as §1, §2, §3

[5] = Hepatitis C virus, 72 hours, luciferase, read-out: genotype 1b EC50 (range class)
[6] = Hepatitis C virus, read-out: Replicon 1b EC50
[7] = genotype 3a, read-out: 3a NS5b polymerase IC50
[8] = 1b (BK) NS5bΔ21, 33P-GTP incorporation, read-out: 1b polymerase IC50 (range class)
[9] = genotype 1b, read-out: 1b NS5b polymerase IC50

| Structure (SMILES) | pEC50 ([1]; Hepatitis C virus) | pEC50 [2, 5] | pEC50 [2, 6] | pIC50 [3, 7] | pIC50 (1b (BK) NS5bΔ21; [8]) | pIC50 (1b (BK) NS5bΔ21; [9]) | pEC50 ([4]; Hepatitis C virus) | pEC50 [1] | pEC50 ([2]; read-out: Replicon 1b EC50) | pEC50 [4] | pIC50 [3] |
| --- | --- | --- | --- | --- | --- | --- | --- | --- | --- | --- | --- |
| CNC(=O)c1c2cc(C3CC3)c(N(CCCO)S(C)(=O)=O)cc2nn1-c1ccc(Br)cc1 [Compound 4, 2-(4-bromophenyl)-5-cyclopropyl-6-[(3-hydroxypropyl)(methylsulfonyl)amino]-N-methyl-2H-indazole-3-carboxamide] | 6.68 | > 6.00 | 7.05 | 8.00 | > 6.00 | 6.77 | 6.03 |  |  |  |  |
| CNC(=O)c1c2cc(C3CC3)c(N(CCCO)S(C)(=O)=O)cc2nn1-c1ccc(Nc2ccccc2F)cc1 [Compound 5, 5-cyclopropyl-2-{4-[(2-fluorophenyl)amino]phenyl}-6-[(3-hydroxypropyl)(methylsulfonyl)amino]-N-methyl-2H-indazole-3-carboxamide] | 7.30 | > 6.00 | 6.89 | 7.40 | > 6.00 | 7.15 | 6.49 |  |  |  |  |
| CNC(=O)c1c2cc(C3CC3)c(N(CCCO)S(C)(=O)=O)cc2nn1-c1ccc(Nc2ccc(F)cc2)cc1 [Compound 21] | 6.54 | > 6.00 | 6.34 | 7.40 | > 6.00 | 7.40 | 6.47 |  |  |  |  |
| CCN(c1cc2nn(-c3ccc(Nc4ccc(F)cc4)cc3)c(C(=O)NC)c2cc1C1CC1)S(C)(=O)=O [Compound 22] | 6.42 | > 6.00 | 7.15 | 7.70 | > 6.00 | 6.96 | 6.47 |  |  |  |  |
| CCN(c1cc2nn(-c3ccc(Oc4ccccc4F)cc3)c(C(=O)NC)c2cc1C1CC1)S(C)(=O)=O [Compound 28] | 6.13 | > 6.00 | 7.00 | 7.70 | > 6.00 | 6.92 | 6.70 |  |  |  |  |
| CNC(=O)c1c2cc(C3CC3)c(N(CCCO)S(C)(=O)=O)cc2nn1-c1ccc(Cl)cc1 [Compound 54, 2-(4-Chlorophenyl-1)-5-cyclopropyl-6-[3-hydroxypropyl(methylsulfonyl)amino]-N-methyl-indazole-3-carboxamide] |  |  |  | 7.70 |  | 6.44 |  | 6.52 | 7.00 | 5.99 |  |
| CNC(=O)c1c2cc(C3CC3)c(N(CCCNC(C)=O)S(C)(=O)=O)cc2nn1-c1ccc(Br)cc1 [Compound 59, 6-{[3-(Acetylamino)propyl](methylsulfonyl)amino}-2-(4-bromophenyl)-5-cyclopropyl-N-methyl-2H-indazole-3-carboxamide] | 6.52 | > 6.00 | 6.17 | 7.30 | > 6.00 | 6.59 | 5.84 |  |  |  |  |
| CNC(=O)c1c2cc(C3CC3)c(N(CCCNC(=O)C3CCC3)S(C)(=O)=O)cc2nn1-c1ccc(Br)cc1 [Compound 62] |  |  |  | 7.30 |  | 6.74 |  | 7.10 | 6.77 | 5.54 |  |
| CNC(=O)c1c2cc(C3CC3)c(N(CCCNC(=O)CCC(=O)OC)S(C)(=O)=O)cc2nn1-c1ccc(Br)cc1 [Compound 66, Methyl 4-[(3-{[2-(4-bromophenyl)-5-cyclopropyl-3-(methylcarbamoyl)-2H-indazol-6-yl](methylsulfonyl)amino}propyl)amino]-4-oxobutanoate] | 7.70 | > 6.00 | 6.92 |  | > 6.00 | 6.49 | 6.44 |  |  |  | 7.10 |
| CNC(=O)c1c2cc(C3CC3)c(N(CCC3COC(C)(C)OC3)S(C)(=O)=O)cc2nn1-c1ccc(Br)cc1 [Compound 95] |  |  |  | 7.40 |  | 7.15 |  | 7.15 | 7.30 | 6.74 |  |
| C=CCN(c1cc2nn(-c3ccc(Br)cc3)c(C(=O)NC)c2cc1C1CC1)S(C)(=O)=O [Compound 98] |  |  |  | 7.52 |  | 7.00 |  | 6.80 | 7.10 | 6.34 |  |
| CNC(=O)c1c2cc(C3CC3)c(N(CCCSC)S(C)(=O)=O)cc2nn1-c1ccc(Br)cc1 [Compound 99, 2-(4-bromophenyl)-5-cyclopropyl-N-methyl-6-[3-methylsulfanylpropyl(methylsulfonyl)amino]-2H-indazole-3-carboxamide] | 6.37 | > 6.00 | 7.15 | 7.70 | > 6.00 | 7.05 | 5.97 |  |  |  |  |
| CNC(=O)c1c2cc(C3CC3)c(N(CCCN3CCCCC3)S(C)(=O)=O)cc2nn1-c1ccc(Oc2ccc(F)cc2)cc1 [Compound 111] | 5.53 | > 6.00 | 6.47 | 6.59 | 5.00 to 6.00 | 5.93 | 5.69 |  |  |  |  |
| CNC(=O)c1c2cc(C3CC3)c(N(CCN3CCOCC3)S(C)(=O)=O)cc2nn1-c1ccc(Oc2ccc(F)cc2)cc1 [Compound 112] | 5.72 | > 6.00 | 6.89 | 7.40 | > 6.00 | 6.39 | 5.56 |  |  |  |  |
| CCN(c1cc2nn(-c3ccc(NCC(C)C)cc3)c(C(=O)NC)c2cc1C1CC1)S(C)(=O)=O [Compound 117] | 6.47 | > 6.00 | 7.15 | 7.15 | > 6.00 | 6.37 | 6.82 |  |  |  |  |
| CNC(=O)c1c2cc(C3CC3)c(N(CCCNC(C)=O)S(C)(=O)=O)cc2nn1-c1ccc(Nc2ccc(F)cc2)cc1 [Compound 119] | 5.92 | > 6.00 | 6.62 | 7.52 | > 6.00 | 6.89 | 5.57 |  |  |  |  |
| CNC(=O)c1c2cc(C3CC3)c(N(CCCNC(=O)c3ccoc3)S(C)(=O)=O)cc2nn1-c1ccc(Nc2ccc(F)cc2)cc1 [Compound 120] | 5.43 | > 6.00 | 7.05 |  | > 6.00 | 6.96 | 4.84 |  |  |  | 7.10 |
| CCOC(=O)CCN(c1cc2nn(-c3ccc(Br)cc3)c(C(=O)NC)c2cc1C1CC1)S(C)(=O)=O [Compound 131] | 6.35 | > 6.00 | 6.85 |  | > 6.00 | 6.43 | 5.42 |  |  |  | 6.33 |
| CNC(=O)c1c2cc(C3CC3)c(N(CCCNS(C)(=O)=O)S(C)(=O)=O)cc2nn1-c1ccc(Br)cc1 [Compound 134] | 6.27 | > 6.00 | 6.96 | 7.52 | > 6.00 | 7.05 | 5.30 |  |  |  |  |
| CCN(c1cc2nn(-c3ccc(Oc4ccc(F)cc4)nc3)c(C(=O)NC)c2cc1C1CC1)S(C)(=O)=O [Compound 136] | 5.82 | > 6.00 | 6.57 | 6.09 | 5.00 to 6.00 | 5.81 | 5.74 |  |  |  |  |
| CNC(=O)c1c2cc(C3CC3)c(N(CCCNC(=O)C(C)C)S(C)(=O)=O)cc2nn1-c1ccc(Br)cc1 [Compound 156] | 6.68 | > 6.00 | 6.68 | 7.15 | > 6.00 | 6.60 | 5.82 |  |  |  |  |
| CNC(=O)c1c2cc(C3CC3)c(N(CCCNC(=O)c3ccoc3)S(C)(=O)=O)cc2nn1-c1ccc(Br)cc1 [Compound 160] | 6.47 | > 6.00 | 7.05 | 7.40 | > 6.00 | 7.15 | 6.11 |  |  |  |  |
